The source of these data is PubChem BioAssay (NCI).

Several values for one entry are separate records, joined by “and”; a condition that tells them apart may be missing. Equal entries are not always repeated.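 Test compounds were applied to cells in 96-well plates for 48 hours at 5 doses. Abbreviation: GI50, concentration required for 50% inhibition of growth. TGI marks complete inhibition of growth.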 Where a SMILES comes first, the peptide text is derived from it. [ ]: non-standard residue; d: D form. NMeY = CN[C@@H](Cc1ccc(O)cc1)C(=O)O; dNMeF = CN[C@H](Cc1ccccc1)C(=O)O; Sar = CNCC(=O)O Some results are limits rather than exact numbers.

The subject of the assay is MDA-MB-468 breast. Nature of the assay: growth of human tumour cells (NCI), 48 h.
Take `COc1cccc(-n2ncc3c(N/N=C/c4ccc(S(C)(=O)=O)cc4)ncnc32)c1`: the GI50 is 3.66 µM and the TGI was 16.5 µM. For the molecule `CC1(C)N=C(N)N=C(N)N1c1cccc(CCCCc2ccccc2)c1`, the GI50 was 0.149 µM and the TGI amounted to 13.8 µM. Turning to `N#Cc1cccc(/C=C(/C(=O)c2ccccc2)c2ccccc2)c1`, the GI50 was 2.3 µM and the TGI was 7.63 µM. The like results for `C[C@H](Nc1ncnc2ccc(-c3cnc(Cl)c(NS(C)(=O)=O)c3)cc12)c1ccccc1` were, in that order, 0.111 µM and 0.841 µM. As to `CCCCCCCCCCCC[n+]1ccccc1`, the GI50 is 0.252 µM and the TGI worked out at 2.02 µM. Consider `ICCC(c1ccccc1)(c1ccccc1)c1ccccc1`, for which the GI50 was 3.17 µM and the TGI worked out at 13.3 µM. The like results for `Nc1c(C(=O)c2cccc(CCC3(O)CCCC3)c2)cnn1-c1ccc(F)cc1` were, in that order, 5.97 µM and greater than 25 µM. In the same order, the values of `CC[C@H](C)[C@H](NC(=O)Nc1ccccc1)C(=O)N(C)[C@H](C[C@@H](OC(C)=O)c1nc(C(=O)N[C@@H](Cc2ccccc2)C[C@H](C)C(=O)OC)cs1)C(C)C` are 0.514 µM and 7.22 µM. On to `ClC1=NC(Cl)C(Cl)=N/C1=N\c1ncn[nH]1` (configuration not stated), for which the GI50 was 1.6 µM and the TGI came to 3.39 µM. The like results for `C#C[C@@]1(O)[C@@H](CO)O[C@@H](n2ccc3c(N)ncnc32)[C@@H]1O` were, in that order, 1.3 µM and 3.33 µM. `O=c1oc2ccc(Cl)cc2c(=O)n1-c1cc(C(F)(F)F)cc(C(F)(F)F)c1`: the GI50 was 0.236 µM and the TGI stood at 0.754 µM. Turning to `c1ccc(-c2nnc(Nc3ccc4c(c3)OCCO4)o2)c(NCc2ccncc2)c1`, the GI50 is 0.0953 µM and the TGI turned out to be 0.528 µM. In the same order, the values of `C/C(=C(/c1ccc(O)cc1)c1ccc(OCCN2CCCCCC2)cc1)c1ccccc1` are 41.2 µM and greater than 100 µM. The like results for `Cc1ccc(-c2cc3nc(C(Cl)Cl)nc(-c4cccnc4)n3n2)cc1` were, in that order, 0.407 µM and 2.13 µM. The like results for `COc1cc(Cn2ccc3c2-c2oncc2CC3)cc(OC)c1` were, in that order, 0.84 µM and 7 µM. Turning to `Cc1ccc(N=Nc2c(N)nn(-c3ccccc3)c2N)cc1`, the GI50 was 0.613 µM and the TGI is greater than 100 µM.

With `O=C1c2ccccc2-c2n[nH]c3cccc1c23`, the GI50 was 17.3 µM and the TGI was greater than 100 µM.

`COc1ccc(/C=C/C(=O)c2ccc3cc(OC)c(OC)cc3c2)cc1OC`: the GI50 is 2.68 µM and the TGI was found to be 10.2 µM.

With `Cc1cc2c3ccccc3ccc2[n+]2ccccc12`, the GI50 was 0.524 µM and the TGI came to 2.13 µM. In the case of `O=C(NC(=S)NNC(=S)NNc1ccccc1)c1ccccc1`, the GI50 is 8.92 µM and the TGI is greater than 100 µM. In the same order, the values of `CCOC(=O)c1ccc(Nc2sc(C(=O)c3cccc([N+](=O)[O-])c3)c(N)c2C#N)cc1` are 0.222 µM and 4.53 µM. The like results for `C/C(=N\NC(=O)c1ccccc1O)c1cccc(/C(C)=N/NC(=O)c2ccccc2O)n1` were, in that order, 0.317 µM and greater than 100 µM. As for `CO[C@H]1C[C@@H]2CC[C@@H](C)[C@@](O)(O2)C(=O)C(=O)N2CCCC[C@H]2C(=O)O[C@H]([C@H](C)C[C@@H]2CC[C@@H](OP(C)(C)=O)[C@H](OC)C2)CC(=O)[C@H](C)/C=C(\C)[C@@H](O)[C@@H](OC)C(=O)[C@H](C)C[C@H](C)/C=C/C=C/C=C/1C`, the GI50 is less than 0.01 µM and the TGI was determined as 17.1 µM. In the same order, the values of `Cc1ccc2c(Nc3cccc(Cl)c3F)ncc(NC(=O)c3csc4c(N)ncnc34)c2c1` are greater than 100 µM and greater than 100 µM. The like results for `CC1(C)CC(OCCCC[P+](c2ccccc2)(c2ccccc2)c2ccccc2)CC(C)(C)N1O` were, in that order, 0.331 µM and 2.87 µM. In the same order, the values of `CCOC(=O)Cn1c(C)c(/C=N/NC(=O)c2cc3c(ccc4ccccc43)o2)c2ccccc21` are 0.326 µM and 1.34 µM. Consider `CC1(O)CC2(O)C=CC3=C(C(=O)c4cccc(O)c4C3=O)C2(O)C(=O)C1O` (configuration not stated), for which the GI50 is 0.735 µM and the TGI worked out at 2.09 µM. Regarding `CCN(C(=O)CCl)C(C)(C)C(SSSC(c1ccc(Cl)cc1)C(C)(C)N(CC)C(=O)CCl)c1ccc(Cl)cc1` (configuration not stated), the GI50 is 1.97 µM and the TGI was 5.39 µM. In the same order, the values of `Cc1ncc(C(=O)Nc2ccc(CN3CCN(C)CC3)c(C(F)(F)F)c2)cc1C#Cc1cnc(N)c2ncccc12` are 1.1 µM and 2.58 µM. In the same order, the values of `COc1ccc(-c2cc(-c3cn[nH]c3-c3ccccn3)ccn2)cc1` are greater than 25 µM and greater than 25 µM. As for `COc1ccc2c(c1)sc1nc(-c3ccccc3)c(-c3ccc(O)c(OC)c3)n12`, the GI50 was 24.4 µM and the TGI was greater than 100 µM. In the same order, the values of `N#CSCc1c(Cl)cccc1Cl` are 3.82 µM and greater than 100 µM. As for `CC1(C)CC(=O)c2c(ccc(C(=O)C[C@H](N)CO)c2N)O1`, the TGI was 17.5 µM and 5.83 µM. Take `C=CC(=O)N1CCC([C@@H]2CCNc3c(C(N)=O)c(-c4ccc(Oc5ccccc5)cc4)nn32)CC1`: the GI50 is 0.057 µM and the TGI came out at 0.711 µM. In the same order, the values of `CC[C@H](C)[C@@H]1NC(=O)[C@H](Cc2ccc(O)cc2)N(C)C(=O)[C@H](Cc2ccccc2)NC(=O)CN(C)C(=O)[C@@H]2CCCN2C(=O)[C@@H](Cc2ccccc2)N(C)C(=O)[C@H](CC(C)C)NC1=O` (cyclo(F[NMeY]IL[dNMeF]P[Sar])) are 0.367 µM and 2.82 µM. In the same order, the values of `CN1CCN(Cc2ccc(NC(=O)c3nc4ccc5[nH]ncc5c4c4c3CCC4)cc2C(F)(F)F)CC1` are 0.936 µM and 2.08 µM.

For the molecule `COc1ccc2[nH]c(=O)c(/C=C/C(=O)/C=C/c3ccc(O)c(OC)c3)cc2c1`, the GI50 is 1.37 µM and the TGI is 4.58 µM. In the same order, the values of `Nc1nc(N)c2c(ccc3nccc32)[nH]1` are 3.28 µM and 21.3 µM.

With `CN(C)C(=O)c1cc2cnc(Nc3ccc(-c4csc5c(=O)cc(N6CCNCC6)oc45)cc3)nc2n1C1CCCC1`, the GI50 is 0.482 µM and the TGI amounted to 2.53 µM.

Regarding `O=C1Nc2cc(Cl)ccc2/C1=C\c1ccc(OCc2ccc(Br)cc2F)cc1`, the GI50 was 2.13 µM and the TGI turned out to be 5.21 µM. `Nc1ccn(C2CC(O)C(CO)O2)c(=O)n1` (configuration not stated): the GI50 was greater than 5000 µM and the TGI is greater than 5000 µM. Consider `Nc1c(C(=O)c2cccc(C#CCN3CCOCC3)c2)cnn1-c1ccc(F)cc1`, for which the GI50 was 9.82 µM and the TGI was greater than 25 µM. As to `CC(=O)OC1CCC2(C)C(CCC3C4CC=C(C(C)=O)C4(C)OC(=O)CC32)C1` (configuration not stated), the GI50 is 1.64 µM and the TGI was 3.74 µM. Turning to `CNC(=O)c1cc(-n2ccc3cc(NC(=O)Nc4ccc(N5CCN(C)CC5)c(C(F)(F)F)c4)ccc32)ccn1`, the GI50 was 3.48 µM and the TGI was found to be 7.57 µM.
